Results taken from patent US20250129334A1, “LINEAGE SPECIFICATION DURING STEM CELL TRANSITION” (Amniotics AB, priority 2021, published 2025).

Tests used:
LT-HSCs = experiment: CFU assay of LT-HSCs sorted from fetal livers of treated embryos; format: in vivo, mice; conditions: DCA-treated embryos vs control and UK5099
Protocol: For fetal liver analysis, pregnant female C57Bl/6xB6.SJL mice were injected intraperitoneally at E9.5 with UK5099 (4 mg/kg) or DCA (200 mg/kg) or PBS (control). Embryos were harvested at E14.5 and individually weighed and processed. Fetal livers were dissected and homogenised in 800 μL ice cold PBS supplemented with 2% fetal bovine serum (FBS) and FL cells were washed in PBS with 2%/FBS. For the differentiated lineage panel, cells were stained with B220 and CD19 (B-cell markers)-PE, CD3e-APC, Ter119-PeCy7 and CD71-FITC and analyzed on a BD FACSARIA III. For the HSC panel, samples were first treated with ammonium chloride solution (STEMCELL Technologies, France) to lyse red blood cells, washed twice in ice cold PBS with 2% FBS, stained with CD3e, B220, Ter119, Gr1 (Lineage)-PeCy5, c-Kit-Efluor780, Sca1-BV421, CD48-FITC, CD150-BV605 and 7-AAD (for dead cell exclusion) and analyzed on a BD FACSARIA III. […] For plating of CFU assays, 100 LT-HSCs were sorted (gating strategy shown in FIG. 11, e) and resuspended in 3.0 mL Methocult M3434 (STEMCELL Technologies, France). Each mixture was divided onto 2 wells of a non-tissue culture treated 6-well plate. Following a 14-day incubation in a humidified incubator at 37° C., 5% CO2, 20% O2, colonies were morphologically distinguished and scored. […] Cells were stained with anti-cKit and anti-CD45 antibodies and analyzed on a BD LSRFortessa. […]

EHT cells = experiment: EHT cell subculture with metabolic regulators, flow cytometry; format: cell-based, human; conditions: UK5099 10 μM
Description: The RB9-CB1 human iPSC line (Woods, N.-B. et al. Brief report: efficient generation of hematopoietic precursors and progenitors from human pluripotent stem cell lines. Stem Cells 29, 1158-1164 (2011)) was co-cultured with mouse embryonic fibroblasts (MEFs, Millipore), passaged every six days and processed to form embryoid bodies (EBs) as described previously (Guibentif, C. et al. Single-Cell Analysis Identifies Distinct Stages of Human Endothelial to-Hematopoietic Transition. Cell Reports 19, 10-19 (2017)). The differentiation protocol used in this study was previously described (Ditadi, A. & Sturgeon, C. M. Directed differentiation of definitive hemogenic endothelium and hematopoietic progenitors from human pluripotent stem cells. Methods 101, 65-72 (2016)), however, small modifications were made to induce both primitive and definitive hematopoiesis, as indicated below and in FIG. 6, a. Newly-formed EBs were first kept in SFD medium supplemented with 1 ng/ml Activin A (on days 0-2) and 3 μM CHIR99021 (on day 2 only). At day 3, media was switched to “Day 3-SP34” medium supplemented with 1 ng/ml Activin A (on day 3 only) and 3 μM CHIR99021 (on day 3 only) until day 6. On day 6, media was replaced by “Day 6-SP34” medium, until day 8. In some experiments where indicated, to obtain a higher yield of HSC-like cells, EBs were kept until day 10: in this case, EBs were plated onto Matrigel (8 μg/cm2, Corning)-coated dishes on day 8 and kept until day 10. Media was changed every day, except on days 5 and 7. On day 8 or 10 (as indicated), EBs were singularized with 5-6 rounds of 5-minute incubations with TryPLE Express (Thermo Fisher Scientific). […]

Row | Compound | decrease in the BFU-E to CFU-GM ratio (LT-HSCs) [%] | CD43+GPA+ cell output (EHT cells; day 3, EHT cells) | decrease in CD43+CD45+ population (EHT cells; day 6, deriving from EHT cells) [fold]
1 | O=C(O)C(Cl)Cl [DCA, dichloroacetate] | 80 | – | –
2 | N#CC(=Cc1cn(-c2ccccc2)c2ccccc12)C(=O)O [UK5099, 2-Cyano-3-(1-phenyl-1H-indol-3-yl)-2-propenoic acid] | – | absence of bias | 2
